Converted amounts (≈) assume the structure as drawn. Like-named read-outs stand apart in the source and are kept apart here.
Experiments:
P388 leukemia = test: antitumor activity against P388 ascitic leukemia in CDF-1 mice, treatment ip on day 1; format: in vivo; settings: for T/C % (median survival time: % over untreated controls) / Toxic deaths: ip on day 1; for Toxic deaths: autoptic findings on dead mice; for antitumor activity compared with the parent drugs: P 388 ascitic leukemia, CDF-1 mice, in words
Procedure: The primary screening "in vivo" was carried out in CDF-1 mice bearing P 388 ascitic leukemia (10^6 cells/mouse).
Antitumor activity against P388 leukemia, treatment ip on day 1
^a Median survival time: % over untreated controls
^b Evaluated on the basis of autoptic findings on dead mice.

HeLa cells = test: colony inhibition test against HeLa cells (treatment for 24 hrs); format: cell-based; settings: Homo sapiens
[1] = tested on: advanced mammary carcinoma; test: activity and toxicity against advanced mammary carcinoma in C3H/He mice, iv once a week for four weeks; format: in vivo; settings: for Toxic deaths: autoptic evaluation; for Tumor growth: evaluated once week after last treatment; for activity at the optimal dose: 6 mg/kg of Doxorubicin, 5.3 mg/kg of IB, in words
Procedure: (§1) The compound IB has been tested in comparison with Doxorubicin against advanced mammary carcinoma spontaneously arising in C3H/He mice. The compounds were administered iv once a week for four weeks.
Activity, toxicity and cardiotoxicity of IB against advanced mammary
(§2) ^1 Experiment was performed in C3H/He mice inoculated s.c. with 20
(§3) × 10^6 mammary carcinoma cells.
(§4) ^2 Treatment iv started when tumor was palpable (once week for four
^3 Evaluated once week after last treatment.
^5 Evaluated on the basis of autoptic

[2] = tested on: miocardial tissue (atrium, ventricle); test: cardiotoxicity in C3H/He mice bearing mammary carcinoma, semithin sections of miocardial tissue (light microscopy); format: in vivo; settings: for animals with cardiac lesions (atrial and ventricular level) / severity of the cardiac lesions: mouse, in vivo
Procedure: as §1, §2, §3, §4
^6 Evaluated on semithin section of miocardial tissue (by light

[3] = 6 mg/kg iv once a week for four weeks
[4] = 7.5 mg/kg iv once a week for four weeks
[5] = 2.7 mg/kg iv once a week for four weeks
[6] = 3.8 mg/kg iv once a week for four weeks
[7] = 5.3 mg/kg iv once a week for four weeks

COc1cccc2c1C(=O)c1c(O)c3c(c(O)c1C2=O)C[C@@](O)(C(C)=O)C[C@@H]3O[C@H]1C[C@H](N)[C@H](O)[C@H](C)O1 [Daunorubicin]
T/C % (median survival time: % over untreated controls) (P388 leukemia; dose 2.9 (ng/kg [sic])): 170% | Toxic deaths (P388 leukemia; dose 2.9 (ng/kg [sic])): 0/10 | T/C % (median survival time: % over untreated controls) (P388 leukemia; dose 4.4 (ng/kg [sic])): 170% | Toxic deaths (P388 leukemia; dose 4.4 (ng/kg [sic])): 0/10 | T/C % (median survival time: % over untreated controls) (P388 leukemia; dose 6.6 (ng/kg [sic])): 170% | Toxic deaths (P388 leukemia; dose 6.6 (ng/kg [sic])): 3/10 | IC50 (HeLa cells; HeLa, 24 h, read-out: ID50): 9 ng/mL (≈ 0.0171 µM)

COc1cccc2c1C(=O)c1c(O)c3c(c(O)c1C2=O)C[C@@](O)(C(=O)CO)C[C@@H]3O[C@H]1C[C@H](N)[C@H](O)[C@H](C)O1 [Doxorubicin]
T/C % (median survival time: % over untreated controls) (P388 leukemia; dose 10.0 (ng/kg [sic])): 225% | Toxic deaths (P388 leukemia; dose 10.0 (ng/kg [sic])): 0/10 | T/C % [1, 3]: 138% | Toxic deaths [1, 3]: 0/5 | Tumor growth [1, 3]: 65 | activity at the optimal dose [1]: the same for both compounds | T/C % [1, 4]: 125% | Toxic deaths [1, 4]: 5/5 | Tumor growth [1, 4]: 84 | Cardiotoxicity, Atrium, affected mice (%) [2, 3]: 100% | Cardiotoxicity, Atrium, grade [2, 3]: 1.6 | Cardiotoxicity, Ventricle, affected mice (%) [2, 3]: 100% | Cardiotoxicity, Ventricle, grade [2, 3]: 1.2 | Cardiotoxicity, Atrium, affected mice (%) [2, 4]: 100% | Cardiotoxicity, Atrium, grade [2, 4]: 3.2 | Cardiotoxicity, Ventricle, affected mice (%) [2, 4]: 100% | Cardiotoxicity, Ventricle, grade [2, 4]: 3.6 | animals with cardiac lesions (atrial and ventricular level) [2]: all the animals | severity of the cardiac lesions [2]: high

COc1cccc2c1C(=O)c1c(O)c3c(c(O)c1C2=O)CC(O)(C(C)=O)CC3OC1CC(O)C(N)C(C)O1 (centres unmarked) [IA, 3'-deamino-3'-hydroxy-4'-deoxy-4'-aminodaunorubicin]
antitumor activity compared with the parent drugs (P388 leukemia): more active than the parent drugs | T/C % (median survival time: % over untreated controls) (P388 leukemia; dose 10.0 (ng/kg [sic])): 165% | Toxic deaths (P388 leukemia; dose 10.0 (ng/kg [sic])): 0/10 | T/C % (median survival time: % over untreated controls) (P388 leukemia; dose 15.0 (ng/kg [sic])): 180% | Toxic deaths (P388 leukemia; dose 15.0 (ng/kg [sic])): 0/10 | T/C % (median survival time: % over untreated controls) (P388 leukemia; dose 22.5 (ng/kg [sic])): 200% | Toxic deaths (P388 leukemia; dose 22.5 (ng/kg [sic])): 0/10 | IC50 (HeLa cells; HeLa cells, treatment for 24 hrs, read-out: ID50 (the source's name)): 7 ng/mL (≈ 0.0133 µM)

COc1cccc2c1C(=O)c1c(O)c3c(c(O)c1C2=O)CC(O)(C(=O)CO)CC3OC1CC(O)C(N)C(C)O1 (centres unmarked) [IB, 3'-deamino-3'-hydroxy-4'-deoxy-4'-aminodoxorubicin]
antitumor activity compared with the parent drugs (P388 leukemia): more active than the parent drugs | T/C % (median survival time: % over untreated controls) (P388 leukemia; dose 4.4 (ng/kg [sic])): 220% | Toxic deaths (P388 leukemia; dose 4.4 (ng/kg [sic])): 0/10 | T/C % (median survival time: % over untreated controls) (P388 leukemia; dose 6.6 (ng/kg [sic])): 230% | Toxic deaths (P388 leukemia; dose 6.6 (ng/kg [sic])): 0/10 | T/C % (median survival time: % over untreated controls) (P388 leukemia; dose 10.0 (ng/kg [sic])): 310% | Toxic deaths (P388 leukemia; dose 10.0 (ng/kg [sic])): 0/10 | T/C % (median survival time: % over untreated controls) (P388 leukemia; dose 15.0 (ng/kg [sic])): 215% | Toxic deaths (P388 leukemia; dose 15.0 (ng/kg [sic])): 3/10 | T/C % [1, 5]: 98% | Toxic deaths [1, 5]: 0/5 | Tumor growth [1, 5]: 32 | T/C % [1, 6]: 129% | Toxic deaths [1, 6]: 0/5 | Tumor growth [1, 6]: 34 | T/C % [1, 7]: 148% | Toxic deaths [1, 7]: 1/5 | Tumor growth [1, 7]: 59 | activity at the optimal dose [1]: the same for both compounds | Cardiotoxicity, Atrium, affected mice (%) [2, 5]: 25% | Cardiotoxicity, Atrium, grade [2, 5]: 0.1 | Cardiotoxicity, Ventricle, affected mice (%) [2, 5]: 0% | Cardiotoxicity, Ventricle, grade [2, 5]: 0 | Cardiotoxicity, Atrium, affected mice (%) [2, 6]: 20% | Cardiotoxicity, Atrium, grade [2, 6]: 0.1 | Cardiotoxicity, Ventricle, affected mice (%) [2, 6]: 60% | Cardiotoxicity, Ventricle, grade [2, 6]: 0.3 | Cardiotoxicity, Atrium, affected mice (%) [2, 7]: 40% | Cardiotoxicity, Atrium, grade [2, 7]: 0.2 | Cardiotoxicity, Ventricle, affected mice (%) [2, 7]: 80% | Cardiotoxicity, Ventricle, grade [2, 7]: 0.4 | cardiotoxicity in comparison with Doxorubicin ([2]; in words): drastically reduced in comparison with Doxorubicin | animals with cardiac lesions (atrial and ventricular level) [2]: lower percent of affected mice | severity of the cardiac lesions [2]: lower severity

From US4684629A, “3'-deamino-3'-hydroxy-4'-deoxy-4'-amino doxorubicin and related daunorubicin” (priority 1985, dated 1987)
